Experimental data as given in BindingDB's records for doi:10.7270/Q2X34VWJ (Nmmlsc, 2009).

Target: Ras-related protein Rab-7a (Canis lupus familiaris, UniProt P18067)
Test: Rab7 GTP binding inhibitors, further analogs, SAR follow-up, biochemical, additional analogs, wildtype, multiplex bead flow cytometry (AID 2036)
[1] = inactive by the depositor's call

Ras-related protein Rab-7a, sequence (P18067 whole entry): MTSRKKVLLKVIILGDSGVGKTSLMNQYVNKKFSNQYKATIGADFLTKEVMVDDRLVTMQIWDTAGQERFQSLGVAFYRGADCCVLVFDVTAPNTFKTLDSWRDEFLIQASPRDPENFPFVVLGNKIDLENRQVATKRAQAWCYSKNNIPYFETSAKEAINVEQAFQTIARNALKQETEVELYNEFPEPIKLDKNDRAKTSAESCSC

Row | SMILES | EC50 [µM] | EC50 [1] [µM]
1 | O=C1Nc2c(Cl)cccc2C1=C1Nc2ccccc2C1=O | 0.024 | –
2 | O=C1Nc2c(Br)cccc2C1=C1Nc2ccccc2C1=O | 30 | –
3 | O=C1Nc2c(F)cccc2C1=C1Nc2ccccc2C1=O | 23.8 | –
4 | O=C1NC(=O)/C(=C2/C(=O)Nc3ccccc32)N1 | 30 | –
5 | O=C1Nc2cccc(Br)c2/C1=C1/Cc2ccccc2C1=O | – | 30
6 | O=C1Nc2ccc(Br)cc2C1=C1Nc2ccccc2C1=O | 30 | –
7 | COc1ccc(S(=O)(=O)n2c(N)c(C#N)c(-c3ccccc3)c2C(=O)c2ccc(Br)cc2)cc1 | – | 30
8 | O=[N+]([O-])c1ccc(C#Cc2ccccc2)cc1 | – | 30
9 | O=C(C#Cc1ccccc1)c1ccc(OC(F)(F)F)cc1 | – | 30
10 | COc1ccc(C(=O)C#Cc2ccccc2)cc1 [1-(4-methoxyphenyl)-3-phenyl-2-propyn-1-one] | – | 30
11 | O=C(C#Cc1ccccc1)c1ccc([N+](=O)[O-])cc1 [1-(4-nitrophenyl)-3-phenyl-2-propyn-1-one] | – | 30
12 | CC(C(=O)O)c1cccc(C(=O)c2ccccc2)c1 (stereo not given) [2-(3-benzoylphenyl)propanoic acid] | – | 30
13 | COc1ccc2cc(CC(=O)O)ccc2c1 [2-(6-methoxynaphthalen-2-yl)ethanoic acid] | – | 30
14 | CC(=O)Oc1ccccc1C(=O)O [2-(acetyloxy)benzoic acid] | – | 30
15 | O=C1Nc2ccccc2/C1=C1/Nc2ccccc2C1=O [2-[(3Z)-2-oxo-2,3-dihydro-1H-indol-3-ylidene]-2,3-dihydro-1H-indol-3-one] | 30 | –
16 | CCCCS(=O)(=O)n1c(N)c(C#N)c(-c2cc(OC)c(OC)c(OC)c2)c1C(=O)c1ccccc1 [2-amino-5-benzoyl-1-butylsulfonyl-4-(3,4,5-trimethoxyphenyl)-3-pyrrolecarbonitrile] | – | 30
17 | COc1ccc(S(=O)(=O)n2c(N)c(C#N)c(-c3cncc(Br)c3)c2C(=O)c2ccccc2)cc1 [2-amino-5-benzoyl-4-(5-bromo-3-pyridinyl)-1-(4-methoxyphenyl)sulfonyl-3-pyrrolecarbonitrile] | – | 8.24
18 | COc1ccc(-c2c(C#N)c(N)n(S(C)(=O)=O)c2C(=O)c2ccccc2)cc1Br [2-azanyl-4-(3-bromanyl-4-methoxy-phenyl)-1-methylsulfonyl-5-(phenylcarbonyl)pyrrole-3-carbonitrile] | – | 30
19 | COc1cc(-c2c(C#N)c(N)n(S(=O)(=O)c3c(C(C)C)cc(C(C)C)cc3C(C)C)c2C(=O)c2ccccc2)cc(OC)c1OC [2-azanyl-5-(phenylcarbonyl)-4-(3,4,5-trimethoxyphenyl)-1-[2,4,6-tri(propan-2-yl)phenyl]sulfonyl-pyrrole-3-carbonitrile] | – | 33.2
20 | O=C1N=c2ccccc2=C1c1[nH]c2ccccc2c1NO [3-[3-(hydroxyamino)-1H-indol-2-yl]-2-indolone] | 30 | –

Row | SMILES | EC50 [µM] | EC50 [1] [µM]
21 | O=C(C#Cc1ccccc1)c1cccnc1 [3-phenyl-1-pyridin-3-ylprop-2-yn-1-one] | – | 30
22 | COC(=O)c1ccc(C(=O)C#Cc2ccccc2)cc1 [4-(1-oxo-3-phenylprop-2-ynyl)benzoic acid methyl ester] | – | 30
23 | N#Cc1ccc(C(=O)C#Cc2ccccc2)cc1 [4-(3-phenylprop-2-ynoyl)benzenecarbonitrile] | – | 30
24 | O=C1N=c2ccc(Br)cc2=C1c1[nH]c2ccccc2c1NO [5-bromanyl-3-[3-(oxidanylamino)-1H-indol-2-yl]indol-2-one] | 30 | –
25 | O=C1N=c2c(Br)cccc2=C1c1[nH]c2ccccc2c1NO [7-bromanyl-3-[3-(oxidanylamino)-1H-indol-2-yl]indol-2-one] | 30 | –
26 | O=C1N=c2c(Cl)cccc2=C1c1[nH]c2ccccc2c1NO [7-chloro-3-[3-(hydroxyamino)-1H-indol-2-yl]-2-indolone] | 30 | –
27 | O=C1N=c2c(F)cccc2=C1c1[nH]c2ccccc2c1NO [7-fluoro-3-[3-(hydroxyamino)-1H-indol-2-yl]-2-indolone] | 30 | –
28 | O=C1Nc2c(Br)cccc2/C1=C1/Cc2ccccc2C1=O [(3E)-7-bromo-3-(3-oxo-1H-inden-2-ylidene)-1H-indol-2-one] | – | 30
29 | O=C1NC(=S)N/C1=C1\C(=O)Nc2ccccc21 [(3Z)-3-(5-oxo-2-sulfanylideneimidazolidin-4-ylidene)-1H-indol-2-one] | 13.4 | –
30 | CC(C)Cc1ccc([C@H](C)C(=O)O)cc1 [(S)-2-(4-Isobutyl-phenyl)-propionic acid] | – | 4.78
31 | O=C1Nc2ccccc2/C1=C1/Cc2ccccc2C1=O [UNM-0000305763] | – | 30
32 | N#Cc1c(-c2ccc(Cl)cc2)c(C(=O)c2ccccc2)n(S(=O)(=O)c2ccc([N+](=O)[O-])cc2)c1N [UNM-0000305780] | – | 30
33 | COc1ccc(S(=O)(=O)n2c(N)c(C#N)c(-c3cc(Br)c(OC)c(OC)c3)c2C(=O)c2ccccc2)cc1 [UNM-0000305782] | – | 30
34 | O=C(C#Cc1ccccc1)c1ccccc1[N+](=O)[O-] [UNM-0000306038] | – | 30
35 | O=C(C#Cc1ccccc1)c1ccccc1 [UNM-0000306039] | – | 30
36 | O=C(C#Cc1ccccc1)c1ccc(Cl)cc1 [UNM-0000306055] | – | 30
37 | O=C(C#Cc1ccccc1)c1ccc(F)cc1 [UNM-0000306059] | – | 30
38 | CC1=C(CC(=O)O)c2cc(F)ccc2/C1=C/c1ccc([S+](C)[O-])cc1 (stereo not given) [UNM-0000306136] | – | 30
39 | C[C@@H](C(=O)O)c1cccc(Oc2ccccc2)c1 [calcium;2-(3-phenoxyphenyl)propanoic acid;hydrate] | 30 | –
40 | CSc1ccc(/C=C2/C(C)=C(CC(=O)O)c3cc(F)ccc32)cc1 [{6-Fluoro-2-methyl-3-[1-(4-methylsulfanyl-phenyl)-meth-(E)-ylidene]-3H-inden-1-yl}-acetic acid] | – | 41.2
